Test results as given in patent publication US7084248B2, “Peptide composition and method for delivering substances into the cytosol of cells” (Gene Tools, LLC, priority 2004, dated 2006).

Test system: cultured animal cells
Test: Functional assay of cytosolic delivery of a Morpholino antisense oligo (splice-correction luciferase system)
Assay type: cell-based
Conditions: all-histidine peptides
Excerpt: In contrast to the above design flexibility, the respective sizes of the lipophilic and weak-base faces of the delivery peptide have a substantial impact on that peptide's delivery efficiency. […] These assays utilized an established functional measurement of cytosolic delivery of a Morpholino antisense oligo in cultured cells (Kang, 1998). A representative test procedure of this type is described in Example 6, in a later section of his application.
The most definitive assessment of cytosolic delivery is one wherein when a cargo is delivered into the cytosol of a cell it generates a quantifiable signal proportional to the amount of cargo delivered into the cytosol. Also, for definitive results, that cargo should be completely stable within the cytosol so that increases due to delivery are not underestimated due to losses from degradation.
In the Kole test system (commercially available from GENE TOOLS, LLC, Philomath, Oreg.) a cell line has been stably transfected with a gene that codes for an RNA transcript that includes a mutation that generates a splicing error which acts to prevent the translation of luciferase coded by that RNA transcript. […] This leads to normal translation of the luciferase, and the light emission from that luciferase is readily quantitated in a luminometer. […]

poly-histidine
delivery of a Morpholino antisense oligo into the cytosol of cultured animal cells: neither poly-histidine nor defined-length oligo-histidines achieved significant delivery
